In general, IC50 refers to the midpoint of a concentration-inhibition curve. Broadly, the EC50 is the concentration at which the effect is half-maximal. One may read the AC50 as the midpoint of the concentration-response curve, whichever way the signal moves.

Assay [1] addresses T1, Voltage-gated N-type calcium channel alpha-1B subunit/Amyloid beta A4 precursor protein-binding family A member 1 (Homo sapiens, UniProt Q00975+Q02410). The assay is classed as protein assay.
The target in assay [2] is T1, Voltage-gated N-type calcium channel alpha-1B subunit/Amyloid beta A4 precursor protein-binding family A member 1. The assay is classed as protein assay. The source holds these as a separate data set.
Assay [3] has as its target T2, Short transient receptor potential channel 4 (Mus musculus, UniProt Q9QUQ5).
T2 sequence (Q9QUQ5 whole entry): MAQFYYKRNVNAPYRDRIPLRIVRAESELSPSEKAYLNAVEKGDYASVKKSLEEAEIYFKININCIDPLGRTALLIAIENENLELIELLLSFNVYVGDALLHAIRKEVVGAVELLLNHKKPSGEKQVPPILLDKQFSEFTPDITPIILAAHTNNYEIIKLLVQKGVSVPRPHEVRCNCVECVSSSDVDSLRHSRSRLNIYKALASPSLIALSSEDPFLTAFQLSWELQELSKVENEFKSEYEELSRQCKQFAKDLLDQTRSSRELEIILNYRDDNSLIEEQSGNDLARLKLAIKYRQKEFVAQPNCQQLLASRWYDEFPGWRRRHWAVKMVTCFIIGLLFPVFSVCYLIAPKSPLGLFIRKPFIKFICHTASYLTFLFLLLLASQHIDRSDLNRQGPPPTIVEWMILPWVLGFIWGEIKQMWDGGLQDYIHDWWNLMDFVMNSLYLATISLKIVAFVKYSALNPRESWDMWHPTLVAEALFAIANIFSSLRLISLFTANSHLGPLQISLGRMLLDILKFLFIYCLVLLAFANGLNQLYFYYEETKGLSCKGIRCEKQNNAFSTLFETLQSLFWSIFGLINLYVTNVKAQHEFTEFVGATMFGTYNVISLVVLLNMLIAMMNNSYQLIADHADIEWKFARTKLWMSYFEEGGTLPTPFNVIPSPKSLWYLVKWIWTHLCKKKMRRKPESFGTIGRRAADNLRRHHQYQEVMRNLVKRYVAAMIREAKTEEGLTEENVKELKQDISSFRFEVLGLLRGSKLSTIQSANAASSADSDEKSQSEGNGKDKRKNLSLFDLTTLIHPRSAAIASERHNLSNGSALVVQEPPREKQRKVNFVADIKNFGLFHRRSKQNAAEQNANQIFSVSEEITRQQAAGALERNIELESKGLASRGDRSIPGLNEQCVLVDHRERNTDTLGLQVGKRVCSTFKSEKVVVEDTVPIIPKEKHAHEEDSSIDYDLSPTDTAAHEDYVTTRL
Nature of the assay: block of DAMGO-driven TRPC4 calcium entry – cell-based, HEK293 TRPC4/mu-opioid, Fluo-4 calcium, dose response (AID 434942).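 Also: potency of inhibitors blocking the TRPC4 calcium response.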 The class given is functional.

Assay [4] concerns Vero. Nature of the assay: cells. The class given is functional, cell-based. As to conditions: Chlorocebus sabaeus.
Assay [5] deals with T3, Alkaline phosphatase, tissue-nonspecific isozyme (Homo sapiens, UniProt P05186).
T3 sequence (P05186 whole entry): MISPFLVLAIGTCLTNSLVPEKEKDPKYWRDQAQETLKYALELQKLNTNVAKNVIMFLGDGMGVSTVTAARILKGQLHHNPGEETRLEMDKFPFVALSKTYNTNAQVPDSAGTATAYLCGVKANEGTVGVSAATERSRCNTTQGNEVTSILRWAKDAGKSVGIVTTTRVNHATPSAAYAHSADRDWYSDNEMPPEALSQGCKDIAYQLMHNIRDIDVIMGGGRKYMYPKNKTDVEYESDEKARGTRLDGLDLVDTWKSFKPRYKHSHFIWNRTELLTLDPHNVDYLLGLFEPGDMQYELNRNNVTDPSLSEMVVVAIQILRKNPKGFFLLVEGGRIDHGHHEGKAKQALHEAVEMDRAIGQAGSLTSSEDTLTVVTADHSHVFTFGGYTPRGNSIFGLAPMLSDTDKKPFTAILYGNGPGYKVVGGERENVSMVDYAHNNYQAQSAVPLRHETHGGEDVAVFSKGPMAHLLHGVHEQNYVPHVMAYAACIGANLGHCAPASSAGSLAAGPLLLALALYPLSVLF
In words: potency against alkaline phosphatase TNAP – biochemical, luminescent, dose response, SAR follow-up (AID 1056).

Assay [6] has as its target Alkaline phosphatase, placental type (Homo sapiens, UniProt P05187). In words: human placental alkaline phosphatase inhibition – biochemical, luminescence, confirmation (AID 1512). The class given is functional.
For assay [7], the target named is Glyceraldehyde-3-phosphate dehydrogenase (Homo sapiens, UniProt P04406).
For assay [8], the target named is T2, Short transient receptor potential channel 4. Nature of the assay: calcium entry via TRPC4 opening agents – cell-based, HEK293 TRPC4/mu-opioid, Fluo-4 calcium, dose response (AID 434937). The assay is classed as functional.
A short description of assay [9]: Trypanosoma cruzi growth suppression in host cells – NIH3T3 host cells, beta-gal luminescence, confirmation (AID 2044).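 Also: intracellular parasites grown in NIH/3T3 mouse fibroblasts as host cells; luminescent beta-galactosidase reporter signal from transgenic T. cruzi replicating inside host cells; inhibitors lower the luminescence signal.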 The class given is functional, cell-based.
Assay [10] in a line: NIH3T3 cell viability loss – ATP luminescence, mouse fibroblasts, counter-screen, dose response (AID 2010).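 Also: cells exposed to compound for about 90 hours before reading.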 The class given is functional, cell-based.
A short description of assay [11]: cells.
For assay [12], the target named is T4, Protein RecA (Mycobacterium tuberculosis, UniProt P9WHJ3).
T4 sequence (P9WHJ3 whole entry): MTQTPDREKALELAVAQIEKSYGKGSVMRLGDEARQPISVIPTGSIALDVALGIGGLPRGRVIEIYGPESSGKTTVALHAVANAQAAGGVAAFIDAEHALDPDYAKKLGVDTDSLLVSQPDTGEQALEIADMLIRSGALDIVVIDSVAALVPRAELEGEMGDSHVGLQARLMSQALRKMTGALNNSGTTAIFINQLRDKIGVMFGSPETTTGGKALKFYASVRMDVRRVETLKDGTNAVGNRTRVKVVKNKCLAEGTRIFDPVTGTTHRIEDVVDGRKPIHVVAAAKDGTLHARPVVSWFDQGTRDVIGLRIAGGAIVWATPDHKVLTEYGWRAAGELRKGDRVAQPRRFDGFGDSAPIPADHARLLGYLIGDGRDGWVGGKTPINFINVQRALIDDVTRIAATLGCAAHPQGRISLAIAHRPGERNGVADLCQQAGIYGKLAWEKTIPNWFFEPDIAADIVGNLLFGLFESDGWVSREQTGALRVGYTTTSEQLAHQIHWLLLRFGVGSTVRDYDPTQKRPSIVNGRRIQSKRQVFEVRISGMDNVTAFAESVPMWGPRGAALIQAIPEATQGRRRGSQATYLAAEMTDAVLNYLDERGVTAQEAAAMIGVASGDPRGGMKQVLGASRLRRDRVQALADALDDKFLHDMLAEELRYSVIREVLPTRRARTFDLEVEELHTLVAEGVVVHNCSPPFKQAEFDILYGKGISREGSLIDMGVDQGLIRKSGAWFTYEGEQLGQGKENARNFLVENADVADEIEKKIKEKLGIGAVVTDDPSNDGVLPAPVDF
Nature of the assay: Fluorescence Cell-Free Homogeneous Dose Retest to Identify Inhibitors of RecA-Intein Splicing Activity. [Related pubchem assays (depositor defined):AID2097, AID2223, AID489010, AID492950]. The assay is classed as functional.

For assay [13], the target named is T5, Replicative DNA helicase DnaB (Mycobacterium tuberculosis, UniProt P9WMR3).
T5 sequence (P9WMR3 whole entry): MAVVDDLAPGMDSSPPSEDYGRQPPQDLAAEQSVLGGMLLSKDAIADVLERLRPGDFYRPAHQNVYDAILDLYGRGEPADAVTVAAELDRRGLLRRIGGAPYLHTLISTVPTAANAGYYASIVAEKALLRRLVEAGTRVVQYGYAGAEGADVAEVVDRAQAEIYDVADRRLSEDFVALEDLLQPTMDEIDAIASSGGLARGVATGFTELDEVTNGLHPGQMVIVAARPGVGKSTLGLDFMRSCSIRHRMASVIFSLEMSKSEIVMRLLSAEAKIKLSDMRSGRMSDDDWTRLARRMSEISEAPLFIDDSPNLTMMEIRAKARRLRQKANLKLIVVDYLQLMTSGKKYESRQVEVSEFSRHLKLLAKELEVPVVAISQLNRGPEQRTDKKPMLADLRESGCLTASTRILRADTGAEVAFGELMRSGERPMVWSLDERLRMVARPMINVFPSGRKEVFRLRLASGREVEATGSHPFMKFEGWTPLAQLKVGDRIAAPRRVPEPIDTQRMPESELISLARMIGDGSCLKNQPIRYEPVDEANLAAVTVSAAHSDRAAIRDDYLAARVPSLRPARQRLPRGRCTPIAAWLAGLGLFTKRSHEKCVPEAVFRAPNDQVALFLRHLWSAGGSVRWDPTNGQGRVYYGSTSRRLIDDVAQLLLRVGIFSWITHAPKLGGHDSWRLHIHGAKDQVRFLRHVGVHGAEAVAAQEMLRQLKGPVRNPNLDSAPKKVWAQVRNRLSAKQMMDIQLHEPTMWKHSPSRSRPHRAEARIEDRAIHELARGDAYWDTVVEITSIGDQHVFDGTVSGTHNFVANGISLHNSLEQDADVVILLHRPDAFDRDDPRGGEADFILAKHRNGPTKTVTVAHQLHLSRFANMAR
In words: DnaB intein splicing inhibitors, dose response, biochemical, cell-free fluorescence (AID 449749). The assay is classed as functional.

Activity calls are given as the source filed them.

T1 sequence (Q00975 whole entry): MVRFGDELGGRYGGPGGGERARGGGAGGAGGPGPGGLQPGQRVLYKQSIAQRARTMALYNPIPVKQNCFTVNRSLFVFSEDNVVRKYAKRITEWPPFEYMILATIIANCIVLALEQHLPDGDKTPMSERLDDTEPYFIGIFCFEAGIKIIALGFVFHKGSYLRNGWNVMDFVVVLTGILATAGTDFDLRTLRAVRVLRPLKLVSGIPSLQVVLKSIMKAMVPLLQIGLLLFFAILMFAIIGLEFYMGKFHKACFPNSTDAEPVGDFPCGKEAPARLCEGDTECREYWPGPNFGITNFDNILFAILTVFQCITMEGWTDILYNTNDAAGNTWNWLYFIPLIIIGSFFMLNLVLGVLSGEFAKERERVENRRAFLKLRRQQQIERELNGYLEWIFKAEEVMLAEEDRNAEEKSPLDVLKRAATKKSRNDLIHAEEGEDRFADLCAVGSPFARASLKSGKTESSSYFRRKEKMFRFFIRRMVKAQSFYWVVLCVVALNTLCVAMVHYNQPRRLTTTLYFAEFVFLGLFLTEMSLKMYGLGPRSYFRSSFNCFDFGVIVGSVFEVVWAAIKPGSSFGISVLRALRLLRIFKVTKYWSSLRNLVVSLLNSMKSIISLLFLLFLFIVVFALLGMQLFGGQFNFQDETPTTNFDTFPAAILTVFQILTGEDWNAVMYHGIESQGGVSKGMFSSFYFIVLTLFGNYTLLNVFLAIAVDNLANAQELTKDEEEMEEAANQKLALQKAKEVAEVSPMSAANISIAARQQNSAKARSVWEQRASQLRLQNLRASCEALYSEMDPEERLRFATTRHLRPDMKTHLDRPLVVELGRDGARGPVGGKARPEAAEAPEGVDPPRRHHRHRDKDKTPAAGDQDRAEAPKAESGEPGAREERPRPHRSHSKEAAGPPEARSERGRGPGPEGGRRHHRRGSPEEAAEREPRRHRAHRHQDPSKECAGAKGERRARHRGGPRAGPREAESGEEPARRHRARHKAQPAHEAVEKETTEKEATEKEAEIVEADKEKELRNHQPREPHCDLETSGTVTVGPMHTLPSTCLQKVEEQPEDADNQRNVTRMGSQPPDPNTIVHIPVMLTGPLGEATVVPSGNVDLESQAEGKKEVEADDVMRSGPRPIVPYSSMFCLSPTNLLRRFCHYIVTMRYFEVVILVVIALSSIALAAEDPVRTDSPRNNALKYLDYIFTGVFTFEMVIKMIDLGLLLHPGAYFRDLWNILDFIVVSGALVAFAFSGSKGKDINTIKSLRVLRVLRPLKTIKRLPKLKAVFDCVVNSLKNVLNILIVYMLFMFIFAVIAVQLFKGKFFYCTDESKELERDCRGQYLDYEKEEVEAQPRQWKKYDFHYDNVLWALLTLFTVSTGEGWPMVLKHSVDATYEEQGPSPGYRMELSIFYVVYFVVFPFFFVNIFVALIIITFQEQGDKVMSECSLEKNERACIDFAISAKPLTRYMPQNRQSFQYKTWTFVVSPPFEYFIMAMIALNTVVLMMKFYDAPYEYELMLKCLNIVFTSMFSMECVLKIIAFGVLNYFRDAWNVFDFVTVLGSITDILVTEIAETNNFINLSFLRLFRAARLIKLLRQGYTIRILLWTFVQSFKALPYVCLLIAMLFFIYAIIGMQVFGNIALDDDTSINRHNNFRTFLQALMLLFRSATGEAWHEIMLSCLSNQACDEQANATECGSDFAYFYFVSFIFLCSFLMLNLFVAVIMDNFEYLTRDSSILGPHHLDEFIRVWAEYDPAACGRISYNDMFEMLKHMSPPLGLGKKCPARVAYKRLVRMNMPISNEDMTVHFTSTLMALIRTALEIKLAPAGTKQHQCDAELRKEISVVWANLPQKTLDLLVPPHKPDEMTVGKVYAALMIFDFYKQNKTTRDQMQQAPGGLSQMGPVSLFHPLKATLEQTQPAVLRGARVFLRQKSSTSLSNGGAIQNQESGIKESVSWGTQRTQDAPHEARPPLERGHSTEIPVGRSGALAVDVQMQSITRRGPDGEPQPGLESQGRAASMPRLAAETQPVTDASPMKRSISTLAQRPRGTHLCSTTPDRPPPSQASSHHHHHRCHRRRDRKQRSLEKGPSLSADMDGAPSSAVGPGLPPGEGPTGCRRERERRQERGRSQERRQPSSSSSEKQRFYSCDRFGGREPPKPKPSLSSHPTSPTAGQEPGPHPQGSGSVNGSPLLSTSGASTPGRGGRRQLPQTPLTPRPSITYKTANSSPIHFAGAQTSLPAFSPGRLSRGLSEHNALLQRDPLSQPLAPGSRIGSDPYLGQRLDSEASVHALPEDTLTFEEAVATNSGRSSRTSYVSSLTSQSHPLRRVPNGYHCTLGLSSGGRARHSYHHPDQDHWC
T1 sequence (Q02410 whole entry): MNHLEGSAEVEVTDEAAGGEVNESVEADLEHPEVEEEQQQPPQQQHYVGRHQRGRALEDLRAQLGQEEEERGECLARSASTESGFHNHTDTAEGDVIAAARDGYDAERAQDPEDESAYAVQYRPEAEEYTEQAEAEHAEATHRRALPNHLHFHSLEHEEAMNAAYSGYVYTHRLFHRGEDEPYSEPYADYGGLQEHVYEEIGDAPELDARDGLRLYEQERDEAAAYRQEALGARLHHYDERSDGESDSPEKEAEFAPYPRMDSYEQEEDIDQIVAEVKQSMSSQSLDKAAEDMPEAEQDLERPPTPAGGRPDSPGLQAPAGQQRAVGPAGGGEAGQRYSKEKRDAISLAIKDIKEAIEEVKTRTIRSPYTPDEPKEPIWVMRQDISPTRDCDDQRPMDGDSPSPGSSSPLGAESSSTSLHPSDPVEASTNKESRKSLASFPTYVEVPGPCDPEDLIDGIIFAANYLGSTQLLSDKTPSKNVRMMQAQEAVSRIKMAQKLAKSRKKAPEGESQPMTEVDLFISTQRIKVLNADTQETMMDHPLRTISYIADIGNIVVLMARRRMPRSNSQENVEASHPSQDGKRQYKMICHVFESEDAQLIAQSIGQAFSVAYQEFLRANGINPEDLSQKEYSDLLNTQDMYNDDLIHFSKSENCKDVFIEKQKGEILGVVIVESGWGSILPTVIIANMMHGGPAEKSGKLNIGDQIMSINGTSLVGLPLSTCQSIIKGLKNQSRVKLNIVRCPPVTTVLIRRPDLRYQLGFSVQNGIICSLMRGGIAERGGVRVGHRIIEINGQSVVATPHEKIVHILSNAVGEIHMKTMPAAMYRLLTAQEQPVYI
Glyceraldehyde-3-phosphate dehydrogenase, sequence (P04406 whole entry): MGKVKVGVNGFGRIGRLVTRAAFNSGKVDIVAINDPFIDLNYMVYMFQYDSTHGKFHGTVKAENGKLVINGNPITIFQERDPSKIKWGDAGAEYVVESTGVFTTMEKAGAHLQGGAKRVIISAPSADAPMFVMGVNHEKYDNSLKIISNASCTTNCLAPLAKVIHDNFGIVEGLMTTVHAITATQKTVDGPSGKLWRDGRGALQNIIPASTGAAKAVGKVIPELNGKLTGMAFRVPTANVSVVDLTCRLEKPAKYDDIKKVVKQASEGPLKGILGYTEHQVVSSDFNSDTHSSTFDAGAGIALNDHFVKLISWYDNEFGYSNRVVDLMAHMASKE
Alkaline phosphatase, placental type, sequence (P05187 whole entry): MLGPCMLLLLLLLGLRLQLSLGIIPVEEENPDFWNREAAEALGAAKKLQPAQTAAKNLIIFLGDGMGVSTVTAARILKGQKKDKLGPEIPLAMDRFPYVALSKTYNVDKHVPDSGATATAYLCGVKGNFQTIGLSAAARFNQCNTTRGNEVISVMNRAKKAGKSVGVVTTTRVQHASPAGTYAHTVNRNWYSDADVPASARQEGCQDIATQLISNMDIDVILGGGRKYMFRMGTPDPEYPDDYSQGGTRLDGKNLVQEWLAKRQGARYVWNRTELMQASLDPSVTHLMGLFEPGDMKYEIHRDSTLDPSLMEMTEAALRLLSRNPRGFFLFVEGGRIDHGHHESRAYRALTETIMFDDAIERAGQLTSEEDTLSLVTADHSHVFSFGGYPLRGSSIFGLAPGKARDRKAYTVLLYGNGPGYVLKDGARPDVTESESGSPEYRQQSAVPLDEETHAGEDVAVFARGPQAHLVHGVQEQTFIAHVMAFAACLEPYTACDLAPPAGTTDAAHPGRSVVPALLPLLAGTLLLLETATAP

Turning to `O=C(O)Cc1sc(Nc2ccc(Cl)cc2)nc1-c1cccs1`, the results for the IC50 in assay [1] and in [2] were 16 µM (active) and > 50 µM (inactive), respectively.

`O=C(Cc1cccc2ccccc12)Nc1ccc(Br)cc1C(=O)O`: the concentration giving a half-maximal response (EC50) in assay [3] was 5.96 µM (active). The IC50 in assay [4] was > 25 µM (active).

With `CC1(C)CC(=O)c2c(-c3ccc(Cl)cc3)n[nH]c2C1`, the half-inhibitory concentration (IC50) in [5] was 5.02 µM (active); in [6], > 100 µM (inactive); in [7] it was > 100 µM (not active).

Take `Nc1nnc(-c2ccc(Cl)cc2)[nH]1`: the IC50 is 24.5 µM (active) in assay [5], > 100 µM (inactive) in assay [6] and > 100 µM (not active) in assay [7].

Regarding `CN1CSC2=C(C#N)C(c3cccc(OCc4ccccc4)c3)CC(=O)N2C1` (configuration not stated), the half-inhibitory concentration (IC50) was 7.59 µM (active) in assay [1] and 47.6 µM (active) in assay [2].

As to `Cc1ccccc1C(=O)Nc1c(C(=O)N(CCN(C)C)Cc2ccco2)oc2ccccc12`, the EC50 in assay [8] was 4.22 µM (active); in [3], 0.473 µM (active).

Regarding `COc1ccccc1/C=C/CN1CCCC(CCC(=O)NCc2ccc(F)c(F)c2)C1` (configuration not stated), the concentration for a half-maximal effect (EC50) in [8] was 0.168 µM (active); in [9], < 0.1 µM (active); in assay [10], > 60 µM (not active); in assay [11] it was 0.043 µM (active).

On to `COc1ccc(-c2n[nH]c3c2C(=O)CC(C)(C)C3)cc1`, for which the IC50 in [5] is 3.57 µM (active); in [6] it was > 100 µM (inactive); in [7] it was > 100 µM (not active).

For `Cn1ncc2c1ncn1c(-c3ccc(Cl)cc3Cl)nnc21`, the IC50 was > 100 µM (inactive) in assay [5], > 100 µM (inactive) in assay [6] and > 100 µM (not active) in assay [7].

`Cc1[nH]n(C)c(=O)c1C(=O)c1c(-c2c(Cl)cccc2Cl)noc1C`: the values for the EC50 in [12] and in assay [3] were 1.71 µM (active) and 4.22 µM (active), respectively. In addition, the AC50 in [13] is 5.13 µM (active).

(Values after ChEMBL document CHEMBL1201862, “PubChem BioAssay data set” (2004).)
